This note sets out measurements from patent publication US9670202B2, “Substituted triazolopyridines” (BAYER PHARMA AKTIENGESELLSCHAFT, priority 2013, dated 2017).

The IC50 is the concentration at which inhibition is half-maximal.

Where a name gives a salt, the structure may show the parent alone.

Sequence of human kinase Mps-1 (P33981 whole entry): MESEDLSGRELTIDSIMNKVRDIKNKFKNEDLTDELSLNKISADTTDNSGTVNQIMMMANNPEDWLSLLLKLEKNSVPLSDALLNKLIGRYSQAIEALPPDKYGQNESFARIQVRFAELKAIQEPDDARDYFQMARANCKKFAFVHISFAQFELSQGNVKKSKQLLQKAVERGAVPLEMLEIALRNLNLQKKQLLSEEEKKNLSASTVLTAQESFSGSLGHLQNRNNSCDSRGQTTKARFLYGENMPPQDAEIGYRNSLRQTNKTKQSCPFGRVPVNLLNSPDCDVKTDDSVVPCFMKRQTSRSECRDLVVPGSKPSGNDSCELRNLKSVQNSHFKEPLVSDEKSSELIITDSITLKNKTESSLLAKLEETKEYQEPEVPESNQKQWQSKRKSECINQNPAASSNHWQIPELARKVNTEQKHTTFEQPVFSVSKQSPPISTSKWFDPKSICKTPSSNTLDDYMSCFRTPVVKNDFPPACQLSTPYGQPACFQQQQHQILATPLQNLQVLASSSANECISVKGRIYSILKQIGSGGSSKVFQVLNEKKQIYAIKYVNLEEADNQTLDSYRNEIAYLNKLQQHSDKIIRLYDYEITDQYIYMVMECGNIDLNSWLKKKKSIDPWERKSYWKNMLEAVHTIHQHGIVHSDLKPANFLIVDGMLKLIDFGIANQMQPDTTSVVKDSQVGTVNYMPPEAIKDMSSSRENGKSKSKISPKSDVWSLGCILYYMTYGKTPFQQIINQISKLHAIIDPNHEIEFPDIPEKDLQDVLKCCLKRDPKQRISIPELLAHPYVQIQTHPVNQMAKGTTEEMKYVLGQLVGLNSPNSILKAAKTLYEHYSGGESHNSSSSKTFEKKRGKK

The assay concerns the target human kinase Mps-1 (Homo sapiens (Human), UniProt P33981). The assay is described as follows: Mps-1 kinase assay (TR-FRET, 10 μM ATP). Type of assay: biochemical. The conditions noted are these: N-terminally GST-tagged human full length recombinant Mps-1, read-out: Mps-1 Inhibition, IC50 (Assay with 10 μM ATP). The protocol: The human kinase Mps-1 phosphorylates a biotinylated substrate peptide. Detection of the phosphorylated product is achieved by time-resolved fluorescence resonance energy transfer (TR-FRET) from Europium-labelled anti-phospho-Serine/Threonine antibody as donor to streptavidin labelled with cross-linked allophycocyanin (SA-XLent) as acceptor. Compounds are tested for their inhibition of the kinase activity.
N-terminally GST-tagged human full length recombinant Mps-1 kinase (purchased from Invitrogen, Karslruhe, Germany, cat. no PV4071) was used. As substrate for the kinase reaction a biotinylated peptide of the amino-acid sequence […]
The concentration of Mps-1 in the assay was adjusted to the activity of the enzyme lot and was chosen appropriate to have the assay in the linear range, typical enzyme concentrations were in the range of about 1 nM (final conc. in the 5 μl assay volume).
The resulting mixture was incubated 1 h at 22° C. to allow the binding of the phosphorylated peptide to the anti-phospho(Ser/Thr)-Europium-antibody. Subsequently the amount of phosphorylated substrate was evaluated by measurement of the resonance energy transfer from the Europium-labelled anti-phospho(Ser/Thr) antibody to the Streptavidin-XLent. Therefore, the fluorescence emissions at 620 nm and 665 nm after excitation at 350 nm was measured in a Viewlux TR-FRET reader (PerkinElmer LAS, Rodgau-Jügesheinn, Germany). The “blank-corrected normalized ratio” (a Viewlux specific readout, similar to the traditional ratio of the emissions at 665 nm and at 622 nm, in which blank and Eu-donor crosstalk are subtracted from the 665 nm signal before the ratio is calculated) was taken as the measure for the amount of phosphorylated substrate.
For orientation: TR-FRET usually uses a lanthanide donor and a delayed reading to cut background.
`CCNC(=O)c1ccc(Nc2nc3ccc(N4CCN(C(=O)NCc5ccc(F)cc5)CC4)cn3n2)c(OCC)c1` [Example 01.01, 4-(2-{[2-ethoxy-4-(ethylcarbamoyl)phenyl]amino}[1,2,4]triazolo[1,5-a]-pyridin-6-yl)-N-(4-fluorobenzyl)piperazine-1-carboxamide]: the IC50 came to 3.1 nM.
The figure for `CC(C)(C)NC(=O)c1ccc(Nc2nc3ccc(N4CCN(C(=O)NCc5ccc(F)cc5)CC4)cn3n2)c(OCC(F)(F)F)c1` [Example 01.02, 4-(2-{[4-(tert-butylcarbamoyl)-2-(2,2,2-trifluoroethoxy)phenyl]amino}-[1,2,4]triazolo[1,5-a]pyridin-6-yl)-N-(4-fluorobenzyl)piperazine-1-carboxamide] is 5.6 nM; for `CCN(CC)C(=O)c1ccc(Nc2nc3ccc(N4CCN(C(=O)NCc5ccc(F)cc5)CC4)cn3n2)c(OC)c1` [Example 01.03, 4-(2-{[4-(diethylcarbamoyl)-2-methoxyphenyl]amino}[1,2,4]triazolo[1,5-a]pyridin-6-yl)-N-(4-fluorobenzyl)piperazine-1-carboxamide] it is 7.9 nM.
With `CCOc1cc(C(=O)N2CCOCC2)ccc1Nc1nc2ccc(N3CCN(C(=O)NCc4ccc(F)cc4)CC3)cn2n1` [Example 01.04, 4-(2-{[2-ethoxy-4-(morpholin-4-ylcarbonyl)phenyl]amino}[1,2,4]triazolo-[1,5-a]pyridin-6-yl)-N-(4-fluorobenzyl)piperazine-1-carboxamide] the figure was 2.6 nM.
As to `CCCOc1cc(C(=O)N(CC)CC)ccc1Nc1nc2ccc(N3CCN(C(=O)NCc4ccc(F)cc4)CC3)cn2n1` [Example 01.05, 4-(2-{[4-(diethylcarbamoyl)-2-propoxyphenyl]amino}[1,2,4]triazolo[1,5-a]pyridin-6-yl)-N-(4-fluorobenzyl)piperazine-1-carboxamide], the IC50 worked out at 9.7 nM.
The figure for `CCN(CC)C(=O)c1ccc(Nc2nc3ccc(N4CCN(C(=O)NCc5ccc(F)cc5)CC4)cn3n2)c(OCC(C)C)c1` [Example 01.06, 4-(2-{[4-(diethylcarbamoyl)-2-(2-methylpropoxy)phenyl]amino}[1,2,4]-triazolo[1,5-a]pyridin-6-yl)-N-(4-fluorobenzyl)piperazine-1-carboxamide trifluoroacetate] is 28.5 nM; for `CCN(CC)C(=O)c1ccc(Nc2nc3ccc(N4CCN(C(=O)NCc5ccc(F)cc5)CC4)cn3n2)c(OCC2CC2)c1` [Example 01.07, 4-(2-{[2-(cyclopropylmethoxy)-4-(diethylcarbamoyl)phenyl]amino}[1,2,4]-triazolo[1,5-a]pyridin-6-yl)-N-(4-fluorobenzyl)piperazine-1-carboxamide] it is 20.6 nM.
The figure for `CCN(CC)C(=O)c1ccc(Nc2nc3ccc(N4CCN(C(=O)NCc5ccc(F)cc5)CC4)cn3n2)c(OCCOC)c1` [Example 01.08, 4-(2-{[4-(diethylcarbamoyl)-2-(2-methoxyethoxy)phenyl]amino}[1,2,4]-triazolo[1,5-a]pyridin-6-yl)-N-(4-fluorobenzyl)piperazine-1-carboxamide] is 57 nM; for `CCN(CC)C(=O)c1ccc(Nc2nc3ccc(N4CCN(C(=O)NCc5ccc(F)cc5)CC4)cn3n2)c(OCC(F)(F)F)c1` [Example 01.09, 4-(2-{[4-(diethylcarbamoyl)-2-(2,2,2-trifluoroethoxy)phenyl]amino}[1,2,4]-triazolo[1,5-a]pyridin-6-yl)-N-(4-fluorobenzyl)piperazine-1-carboxamide trifluoroacetate] it is 1.7 nM; for `COc1cc(N2CCN(C)CC2)ccc1Nc1nc2ccc(N3CCN(C(=O)NCc4ccc(F)cc4)CC3)cn2n1` [Example 01.10, N-(4-fluorobenzyl)-4-(2-{[2-methoxy-4-(4-methylpiperazin-1-yl)phenyl]-amino}[1,2,4]triazolo[1,5-a]pyridin-6-yl)piperazine-1-carboxamide] it is 9.2 nM.
With `COc1cc(Nc2nc3ccc(N4CCN(C(=O)NCc5ccc(F)cc5)CC4)cn3n2)ccc1C(=O)N1CCOCC1` [Example 01.11, N-(4-fluorobenzyl)-4-(2-{[3-methoxy-4-(morpholin-4-ylcarbonyl)phenyl]-amino}[1,2,4]triazolo[1,5-a]pyridin-6-yl)piperazine-1-carboxamide] the figure was 45.6 nM; with `COc1ncccc1Nc1nc2ccc(N3CCN(C(=O)NCc4ccc(F)cc4)CC3)cn2n1` [Example 01.12, N-(4-fluorobenzyl)-4-{2-[(2-methoxypyridin-3-yl)amino][1,2,4]triazolo[1,5-a]pyridin-6-yl}piperazine-1-carboxamide], 18.6 nM.
For the molecule `CCOc1ncccc1Nc1nc2ccc(N3CCN(C(=O)NCc4ccc(F)cc4)CC3)cn2n1` [Example 01.13, 4-{2-[(2-ethoxypyridin-3-yl)amino][1,2,4]triazolo[1,5-a]pyridin-6-yl}-N-(4-fluorobenzyl)piperazine-1-carboxamide], the concentration for half-maximal inhibition (IC50) stood at 8.9 nM.
Regarding `N#Cc1ccccc1Nc1nc2ccc(N3CCN(C(=O)NCc4ccc(F)cc4)CC3)cn2n1` [Example 01.14, 4-{2-[(2-cyanophenyl)amino][1,2,4]triazolo[1,5-a]pyridin-6-yl}-N-(4-fluoro-benzyl)piperazine-1-carboxamide], the IC50 was 8 nM.
With `CCOc1cc(C(=O)N2CCOCC2)ccc1Nc1nc2ccc(N3CCC(C(=O)NCc4ccc(F)cc4)CC3)cn2n1` [Example 02.01, 1-(2-{[2-ethoxy-4-(morpholin-4-ylcarbonyl)phenyl]amino}[1,2,4]triazolo-[1,5-a]pyridin-6-yl)-N-(4-fluorobenzyl)piperidine-4-carboxamide], the 50% inhibitory concentration (IC50) was determined as 32.2 nM.
On to `CCNC(=O)c1ccc(Nc2nc3ccc(N4CCC(C(=O)NCC5CC5)CC4)cn3n2)c(OCC)c1` [Example 03.01, N-(cyclopropylmethyl)-1-(2-{[2-ethoxy-4-(ethylcarbamoyl)phenyl]amino}-[1,2,4]triazolo[1,5-a]pyridin-6-yl)piperidine-4-carboxamide], for which the IC50 was found to be 68.8 nM.
Turning to `CCOc1cc(C(=O)N2CCOCC2)ccc1Nc1nc2ccc(N3CCC(C(=O)NCC4CC4)CC3)cn2n1` [Example 03.02, N-(cyclopropylmethyl)-1-(2-{[2-ethoxy-4-(morpholin-4-ylcarbonyl)phenyl]-amino}[1,2,4]triazolo[1,5-a]pyridin-6-yl)piperidine-4-carboxamide], the IC50 worked out at 67.8 nM.
As to `CCNC(=O)c1ccc(Nc2nc3ccc(N4CCC(NC(=O)Cc5ccc(F)cc5)CC4)cn3n2)c(OCC)c1` [Example 04.01, 3-ethoxy-N-ethyl-4-{[6-(4-{[(4-fluorophenyl)acetyl]amino}piperidin-1-yl)-[1,2,4]triazolo[1,5-a]pyridin-2-yl]amino}benzamide], the IC50 amounted to 7.1 nM.
The figure for `CCOc1cc(C(=O)N2CCOCC2)ccc1Nc1nc2ccc(N3CCC(NC(=O)Cc4ccc(F)cc4)CC3)cn2n1` [Example 04.02, N-[1-(2-{[2-ethoxy-4-(morpholin-4-ylcarbonyl)phenyl]amino}[1,2,4]-triazolo[1,5-a]pyridin-6-yl)piperidin-4-yl]-2-(4-fluorophenyl)acetamide] is 12.8 nM.
The figure for `CCOc1ncccc1Nc1nc2ccc(N3CCC(NC(=O)Cc4ccc(F)cc4)CC3)cn2n1` [Example 04.03, N-(1-{2-[(2-ethoxypyridin-3-yl)amino][1,2,4]triazolo[1,5-a]pyridin-6-yl}-piperidin-4-yl)-2-(4-fluorophenyl)acetamide] is 32.8 nM; for `O=C(NCc1ccc(F)cc1)NC1CCN(c2ccc3nc(Nc4ccc(C(=O)N5CCOCC5)cc4OCC(F)(F)F)nn3c2)C1` (stereo not drawn) [Example 05.01, 1-(4-fluorobenzyl)-3-[1-(2-{[4-(morpholin-4-ylcarbonyl)-2-(2,2,2-trifluoroethoxy)phenyl]amino}[1,2,4]triazolo[1,5-a]pyridin-6-yl)pyrrolidin-3-yl]urea] it is 46.9 nM.
